# “Also recorded” adds a separate entry of the source.
# Assays:
# Type in all cases: in vivo, mouse
# RARβ2 mRNA = test: Semi-quantitative PCR of pancreas, HF-fed mice; conditions: HF diet mice; vs HF-vehicle
# Description: (§1) Mice, diet, and drug treatment. WT male C57/BL6 male mice were maintained on either a standard laboratory chow-fed diet (CFD) with 13% kcal fat, (diet #5053, Lab Diet, Inc, St. Louis, Mo.) or a high fat, western style diet (HFD) with 60% kcals from fat, (diet #58126, Lab Diet, Inc., St. Louis, Mo.) for 4 months. One month after the start of the high fat diet treatment, the high fat diet group was further split into 2 groups for 3 months: i) high fat diet and the drinking water containing 1% DMSO; ii) high fat diet and the drinking water containing 1.5 mg/100 ml AC261066, a specific RARβ agonist. Then mice were sacrificed by cervical dislocation. Blood and various tissue samples were harvested.
# (§2) Semi-Quantitate PCR. Total RNA was extracted from mouse tissues using TRIzol reagent (Life technologies) and (1 μg) was used to synthesize cDNA. cDNA synthesis was performed at 42° C. for 1 h in a final volume of 20 μl using qScript (Quanta, MD). Semi-quantitative PCR were performed Taq DNA polymerase (Invitrogen, CA). Three step PCR was run as follows: 94° C. for 30 s, 58-64° C. for 45 s for primer annealing and 72° C. for 1 min for primer extension. The number of cycles for each primer pair for amplification in the linear range was determined experimentally. PCR products were resolved on 2% agarose gels and visualized by staining with ehtidium bromide. […]
# TNF-α, RARβ2, LRAT mRNA = test: Semi-quantitative PCR of kidney, HF-fed mice; conditions: HF diet mice 4 months
# Description: as §1
# as §2, with “Semi-Quantitative” for “Semi-Quantitate”, “bromide. Primers for gene expression used were as follows:” for “bromide.”
# [1] = tested on: PPARα, CPT1-α, CPT2, ACAT1, FASN, SREBP1, ACC1, HSL, PLIN, ADIPOQ mRNA; test: Q-PCR of lipid metabolism genes in liver, pancreas and adipose tissue; conditions: Wt and Ob/Ob mice, pancreas, adipose
# Description: RNA Isolation and cDNA Synthesis-Total RNA was isolated from whole pancreas and small intestine homogenates using RNeasy mini kits (Qiagen, Valencia, Calif.) and quantified using a Nano Drop 2000 spectrophotometer (Thermo Scientific, Wilmington, Del.). Total RNA (2 μg) was used to synthesize cDNA with random primers using a qScript cDNA synthesis kit (Quanta Biosciences, Gaithersburg, Md.).
# Quantitative RT-PCR (Q-PCR)-Q-PCR was performed using SYBR Green PCR master mix on a Bio-Rad MyiQ2 Real Time PCR iCycler (Bio-Rad, Inc. Hercules, Calif.). Gene specific primers (Table 5) were used to amplify mRNA target genes, which were normalized to Hprt internal control genes. cDNA from 3-5 mice per experimental group was analyzed for relative mRNA fold changes, calculated using the Pfaffl method (Pfaffl M W, A new mathematical model for relative quantification in real-time RT-PCR, Nucleic Acids Res. 2001 May 1; 29(9):e45). Relative gene expression values are reported as mean±standard error of the mean (S.E.M) and P-values calculated using one-way analysis of variance followed by Bonferroni multiple comparison test post-hoc analysis.
# [2] = tested on: renal stellate cells (RSCs); test: Double immunofluorescence (vimentin, α-SMA) of renal stellate cells in Db/Db mice; conditions: Db/Db mice treated for 4 weeks
# Description: Retinoic Acid Receptor β (RARβ) Agonists Diminish The Activation of Fibrogenic Kidney Stellate Cells. Given that we observed a significant decrease in mRNA transcripts of α-SMA we measured kidney protein expression of α-SMA in fibrogenic renal stellate cells Renal stellate cells (RSCs) are resident kidney fibroblasts, which in response to inflammation undergo differentiation to “activated” myofibroblasts that secrete contractile proteins such as α-SMA. […] RSCs express the mesenchymal protein marker vimentin. We used double immunofluorescence to label RSCs and determine the percentage of activated RSCs expressing the fibrogenic protein α-SMA. Using Db/Db mice, which spontaneously diabetes and DN in a similar manner to humans, we detected more than a 4-fold increase in activated α-SMA positive RSCs compared to wt con mice (FIG. 33F, G). Db/Db mice treated with AC261066 for 4 weeks had more than a 50% reduction in α-SMA positive RSCs (FIG. 33F, G).
# METHODS. Immunofluorescence and Immunostaining Microscopy-Paraffin embedded pancreatic tissue sections were incubated with antibodies against: insulin (mouse monoclonal 1:300, #1061, Beta Cell Biology Consortium), vimentin (rabbit polyclonal 1:500, Santa Cruz), or α-SMA (mouse monoclonal, 1:1000, Dako, Inc).
smiles,measurement,setting,value
CCCCOCCOc1nc(-c2ccc(C(=O)O)c(F)c2)sc1C [AC261066],pancreatic RARβ2 mRNA level,RARβ2 mRNA,increased
same,kidney LRAT mRNA level,"TNF-α, RARβ2, LRAT mRNA",restores
same,kidney RARβ2 mRNA level,"TNF-α, RARβ2, LRAT mRNA",restores; also recorded: did not have decreased
same,kidney TNF-α mRNA level,"TNF-α, RARβ2, LRAT mRNA",reduces
same,tissue expression of genes involved in lipogenesis and mitochondrial oxidation of lipids,[1],alters
same,reduction in α-SMA positive RSCs,[2],> 50%

# Source: patent US20220304945A1, “METHODS OF TREATING METABOLIC SYNDROME RELATED CONDITIONS USING RETINOIC ACID RECEPTOR AGONISTS” (Cornell University, priority 2014, published 2022)
